# Assay results taken from patent US8318146B1, “Ascarosides as nematode sex pheromones” (The United States of America, as represented by the …, priority 2008, dated 2012).
# How the values were obtained:
# [1] = system: adult male Caenorhabditis elegans; experiment: Caenorhabditis mating assay (male attraction, time spent in scoring region); assay type: in vivo; conditions: for activity in the attraction assay: 0 to 10000 fmol range; for male attraction activity, each ascaroside tested individually at physiological concentrations: 0 to 10 fmol for ascr#3, 0 to 100 fmol for ascr#2; for male attraction when assayed individually: 10 fmol ascr#3, 100 fmol ascr#2; for shape of dose-response curve: 0.1 fmol to 10,000 fmol (FIG. 4); for male attraction activity at higher concentrations: above the physiological range
# Procedure: Wild-type C. elegans var. N2 Bristol and males from the CB1490 him-5(e1490) mutant were utilized in bioassays. The him-5(e1490) mutant segregates XO male progeny by X chromosome nondisjunction during meiosis. All strains were maintained at 20° C. unless detailed otherwise.
# Standard nematode growth medium plates (5 cm diameter) were used for assaying biological activity of the nematode conditioned water. The assay plates comprised of a thin lawn of an overnight grown E. coli OP50 culture with an approximate 0.25 cm gap between the bacterial lawn and the edge of the plate to prevent the nematodes from escaping. Plates were stored at room temperature (20° C.) for two days before being used in trials. Two spots (5 mm in diameter) were spotted 1.6 cm apart from each other on a template and stuck to the bottom of the assay plate. 0.8 μl of the control and the nematode metabolite were placed in the two circles and allowed to dry for approximately 30 seconds. To remove any bias, control and conditioned water spots were interchanged after every trial. Males and hermaphrodites were harvested daily at the fourth larval stage (L4) and stored at 20° C. overnight with 50-60 nematodes of the same sex per plate to be used as young adults the following day. Five nematodes were placed at approximately 1.0 cm away on each side (10 nematodes total) from the spots and allowed to acclimatize for 5 minutes. Trials were videotaped at 30 frames per second for 15 minutes using the Fire-i Unibrain software. For each sample, a minimum of 4-5 trials were conducted each day and each stage was tested on at least three different days.
# Each time a nematode entered and left the scoring region it was scored as a nematode event. The time the nematode entered the scoring region and left the scoring region was recorded. Once inside the scoring region, the average time spent by each nematode was noted and the average time spent by the different nematode in the scoring region during the 15 minute interval (control and the conditioned water) were calculated.
# [2] = Stability of ascr#2 and ascr#3 in agar plates (LC-MS); assay type: physicochemical; conditions: agar plates with 200 nM stored at room temperature for three months; extract in 1 ml methanol
# Procedure: Agar plates (total volume: 20 ml) prepared from Nobel agar and S-media containing ascr#2 and ascr#3 at a concentration of 200 nM were stored at room temperature for three months and subsequently lyophilized. The residue was powdered using a mortar and extracted with ethanol. The extract was evaporated to dryness, redissolved in 1 ml of methanol, and analyzed via LC-MS, using an Agilent 1100 HPLC system equipped with a 10×250 mm Supelco 5μ ODS preparative column eluted at a flow rate of 3.4 ml/min, and a Micromass Quattro II triple-quadrupole mass spectrometer operated in positive-electrospray ionization mode. A solvent gradient was used starting with a solvent composition of 5% methanol and 95% water, which was maintained for three minutes and then progressed linearly to 100% methanol by 40 minutes, resulting in retention times of 21.3 min (ascr#3) and 25.6 min (ascr#2).
# [3] = system: Male C. elegans; experiment: Reversal frequency of males on ascaroside agar plates (automated nematode tracker); assay type: in vivo, Caenorhabditis elegans
# Procedure: Given the nature of the attraction assay, the exact concentration of the compounds tested in the scoring region is not well defined. […] A system used to track the sinusoidal movement of nematodes is disclosed in Cronin et al., 2005. BMC Genet. 6:5 and incorporated herein by reference.
# For the tracker assays, standard nematode growth medium was prepared and added the different ascarosides to the required concentrations into the agar. Plates containing the ascarosides were then allowed to cool and stored at 20° C. overnight. Control plates were treated the same way except that instead of the ascaroside, an equivalent quantity of 100% ethanol was added to the agar. Assay plates were seeded with a thin lawn of an overnight grown E. coli OP50 culture and allowed to dry overnight. 10-15 L4 males were picked 14-16 hours before the experiment on E. coli OP50 seeded plates. For each assay, individual males were picked and placed on assay plates. After 5 minutes, males were assayed for 15 min using the automated tracker to get the different locomotion parameters. For each concentration of ascaroside, an equal number of males were tested on control plates. After the recordings, nematodes were processed using automated tracker software and the results were analyzed using in-house matlab scripts.
SMILES,activity in the attraction assay ([1]; single ascaroside),concentration in the agar extract [2],"increase of reversal frequency ([3]; ascaroside in agar, FIG. 6B)","male attraction activity, each ascaroside tested individually at physiological concentrations ([1]; FIG. 4)",male attraction when assayed individually [1],shape of dose-response curve ([1]; single ascaroside),male attraction activity at higher concentrations ([1]; single ascaroside),"time spent in spotted region relative to control region (maximum) ([1]; single ascaroside, FIG. 4)","lowest concentration that increases reversal frequency ([3]; ascaroside in agar, FIG. 6A)",male attractant concentration lower than required for dauer induction ([3]; comparison with dauer induction),"rank of male attraction response among single ascarosides ([1]; single ascaroside, FIG. 4)"
"C[C@H](CCCCC(=O)O)O[C@@H]1O[C@@H](C)[C@H](O)C[C@H]1O [ASCR #1, 6R-(Tetrahydro-3′R,5′R-dihydroxy-6′S-methyl-2H-pyran-2′R-yloxy)-heptanoic acid]",not active,–,–,–,–,–,–,–,–,–,–
"CC(=O)CC[C@@H](C)O[C@@H]1O[C@@H](C)[C@H](O)C[C@H]1O [ASCR #2, 5R-(Tetrahydro-3′R,5′R-dihydroxy-6′S-methyl-2H-pyran-2′R-yloxy)-2-hexanone]",–,3.5 µM,only weak increases,not active,did not elicit significant male attraction,strongly biphasic activity profile,active,~2.8 fold,–,–,–
"C[C@H](CCCC/C=C/C(=O)O)O[C@@H]1O[C@@H](C)[C@H](O)C[C@H]1O [ASCR #3, 8R-(Tetrahydro-3′R,5′R-dihydroxy-6′S-methyl-2H-pyran-2′R-yloxy)-2E-nonenoic acid]",–,3.2 µM,–,not active,did not elicit significant male attraction,strongly biphasic activity profile,active,approximately 6.6 fold,1 pM,more than 10.000 fold,strongest response
"CC(=O)CC[C@@H](C)O[C@@H]1O[C@@H](C)[C@H](O)C[C@H]1O[C@@H]1O[C@H](CO)[C@@H](O)[C@H](O)[C@H]1O [ASCR #4, 5R-(3′-O-[β-D-glucosyl]-tetrahydro-3′R,5′R-dihydroxy-6′S-methyl-2H-pyran-2′R-yloxy)-2-hexanone]",not active,–,–,–,–,–,–,–,–,–,–
